Test results reported in patent US7183260B2, “C-terminal modified oxamyl dipeptides as inhibitors of the ICE/ced-3 family of cysteine proteases” (Idun Pharmaceuticals, Inc., priority 1998, dated 2007).
Read-outs that look alike come from different tables or passages of the source.

Key:
Type in all cases: biochemical
mICE = molecular target: T1, mICE (Mus musculus, UniProt P29452); assay: Dissociation constant Ki and irreversible rate constant k3 for irreversible inhibitors (ICE)
T1 sequence (P29452 123-296 limits assumed): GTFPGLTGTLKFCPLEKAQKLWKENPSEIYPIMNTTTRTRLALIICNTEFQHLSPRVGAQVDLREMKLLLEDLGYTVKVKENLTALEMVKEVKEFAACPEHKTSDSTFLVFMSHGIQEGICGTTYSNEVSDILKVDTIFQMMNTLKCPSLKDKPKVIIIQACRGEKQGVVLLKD
T1 sequence (P29452 315-402 limits assumed): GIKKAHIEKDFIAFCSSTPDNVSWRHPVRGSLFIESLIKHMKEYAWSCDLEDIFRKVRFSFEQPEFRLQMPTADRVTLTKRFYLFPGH

CPP32 = molecular target: T2, CPP32 (Homo sapiens, UniProt P42574); assay: Dissociation constant Ki and irreversible rate constant k3 for irreversible inhibitors (CPP32)
T2 sequence (P42574 29-175 limits assumed): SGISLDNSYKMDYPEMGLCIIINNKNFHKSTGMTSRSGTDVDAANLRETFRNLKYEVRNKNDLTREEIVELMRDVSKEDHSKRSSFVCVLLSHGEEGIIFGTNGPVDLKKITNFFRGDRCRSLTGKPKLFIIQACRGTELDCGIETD
T2 sequence (P42574 176-277 limits assumed): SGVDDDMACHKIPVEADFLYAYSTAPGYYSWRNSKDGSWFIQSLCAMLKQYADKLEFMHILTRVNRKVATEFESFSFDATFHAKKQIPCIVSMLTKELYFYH

MCH-5 = MCH-5 (Homo sapiens, UniProt Q14790); assay: Dissociation constant Ki and irreversible rate constant k3 for irreversible inhibitors (Mch5)
MCH-2 = molecular target: T3, MCH-2 (Homo sapiens, UniProt P55212); assay: Dissociation constant Ki and irreversible rate constant k3 for irreversible inhibitors (Mch2)
T3 sequence (P55212 24-179 limits assumed): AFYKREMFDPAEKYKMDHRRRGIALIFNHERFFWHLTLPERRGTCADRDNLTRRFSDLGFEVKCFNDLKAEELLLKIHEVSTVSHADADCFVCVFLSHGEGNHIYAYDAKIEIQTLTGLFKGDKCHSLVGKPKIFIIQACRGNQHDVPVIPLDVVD
T3 sequence (P55212 194-293 limits assumed): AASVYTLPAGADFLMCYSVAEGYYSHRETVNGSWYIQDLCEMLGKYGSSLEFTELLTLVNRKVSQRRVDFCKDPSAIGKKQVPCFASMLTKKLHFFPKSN

[1] = continuous assay 60 min, reaction initiated by adding enzyme to substrate-inhibitor mixture

Sequence of MCH-5 (Q14790 217-374 limits assumed, species assumed): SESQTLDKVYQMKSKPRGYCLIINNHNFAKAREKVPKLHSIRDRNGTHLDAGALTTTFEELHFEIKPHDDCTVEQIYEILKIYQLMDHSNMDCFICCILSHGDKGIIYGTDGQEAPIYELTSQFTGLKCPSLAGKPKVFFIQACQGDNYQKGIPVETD
Sequence of MCH-5 (Q14790 385-479 limits assumed, species assumed): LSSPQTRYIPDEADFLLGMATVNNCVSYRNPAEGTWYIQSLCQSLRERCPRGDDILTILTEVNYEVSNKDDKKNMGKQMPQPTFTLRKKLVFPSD

Structure (SMILES)	Ki (mICE; [1])	mICE k3/Ki (mICE; [1])	CPP32 k3/Ki (CPP32; [1])	Ki (CPP32; [1])	Ki (MCH-5; [1])	MCH-5 k3/Ki (MCH-5; [1])	Ki (MCH-2; [1])	MCH-2 k3/Ki (MCH-2; [1])	Ki (mICE)	mICE k3/Ki (mICE)	CPP32 k3/Ki (CPP32)	Ki (CPP32)	Ki (MCH-5)	MCH-5 k3/Ki (MCH-5)	Ki (MCH-2)	MCH-2 k3/Ki (MCH-2)
CC(C)[C@H](NC(=O)C(=O)NC1CCCc2ccccc21)C(=O)N[C@@H](CC(=O)O)C(=O)COc1c(F)c(F)cc(F)c1F (stereo partly drawn) [Example 104]	0.0045 µM	2,320,000 moles^−1 seconds^−1	98,600 moles^−1 seconds^−1	0.084 µM	0.0052 µM	456,000 moles^−1 seconds^−1	0.013 µM	160,000 moles^−1 seconds^−1	–	–	–	–	–	–	–	–
CC(C)[C@H](NC(=O)C(=O)NCc1ccccc1)C(=O)N[C@@H](CC(=O)O)C(=O)COc1c(F)c(F)cc(F)c1F [Example 79]	0.006 µM	1,800,000 moles^−1 seconds^−1	21,000 moles^−1 seconds^−1	0.405 µM	0.005 µM	472,000 moles^−1 seconds^−1	0.125 µM	16,600 moles^−1 seconds^−1	–	–	–	–	–	–	–	–
C[C@H](NC(=O)C(=O)Nc1ccc(F)cc1)C(=O)N[C@@H](CC(=O)O)C(=O)COC(=O)c1c(Cl)cccc1Cl [Example 44]	1.45 µM	11,700 moles^−1 seconds^−1	22,700 moles^−1 seconds^−1	1.28 µM	0.462 µM	18,700 moles^−1 seconds^−1	0.142 µM	18,600 moles^−1 seconds^−1	–	–	–	–	–	–	–	–
C[C@H](NC(=O)C(=O)Nc1ccccc1F)C(=O)N[C@@H](CC(=O)O)C(=O)COC(=O)c1c(Cl)cccc1Cl [Example 39]	0.116 µM	172,000 moles^−1 seconds^−1	68,900 moles^−1 seconds^−1	0.202 µM	0.04 µM	155,000 moles^−1 seconds^−1	0.023 µM	129,000 moles^−1 seconds^−1	–	–	–	–	–	–	–	–
C[C@H](NC(=O)C(=O)NC12CC3CC(CC(C3)C1)C2)C(=O)N[C@@H](CC(=O)O)C(=O)COP(=O)(c1ccccc1)c1ccccc1 [Example 53]	–	–	–	–	–	–	–	–	0.462 µM	27,600 moles^−1 seconds^−1	149,000 moles^−1 seconds^−1	0.134 µM	0.077 µM	50,400 moles^−1 seconds^−1	0.042 µM	124,000 moles^−1 seconds^−1
CC(C)[C@H](NC(=O)C(=O)Nc1ccccc1C(C)(C)C)C(=O)N[C@@H](CC(=O)O)C(=O)COc1c(F)c(F)cc(F)c1F [Example 93]	0.006 µM	2,052,000 moles^−1 seconds^−1	27,700 moles^−1 seconds^−1	0.353 µM	0.003 µM	1,165,000 moles^−1 seconds^−1	0.041 µM	112,000 moles^−1 seconds^−1	–	–	–	–	–	–	–	–
CC(C)[C@H](NC(=O)C(=O)Nc1cc(C(C)(C)C)ccc1C(C)(C)C)C(=O)N[C@@H](CC(=O)O)C(=O)COc1c(F)c(F)cc(F)c1F [Example 109]	0.025 µM	767,000 moles^−1 seconds^−1	70,600 moles^−1 seconds^−1	0.193 µM	0.034 µM	51,300 moles^−1 seconds^−1	0.232 µM	8,230 moles^−1 seconds^−1	–	–	–	–	–	–	–	–
CC(C)[C@H](NC(=O)C(=O)Nc1cccc2ccccc12)C(=O)N[C@@H](CC(=O)O)C(=O)COc1c(F)cccc1F [Example 5]	0.0074 µM	–	–	0.041 µM	0.005 µM	–	0.025 µM	–	–	–	–	–	–	–	–	–
